Reference: the supplement of paper PMC11061612

Experiments:
Carboplatin = compound: C1CC(C1)(C(=O)[O-])C(=O)[O-].N.N.[Pt+2] [Carboplatin]; details: max 10 µM
Summary of the method: (§1)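 Cancer cell lines were dosed for 72 hours (final DMSO typically 0.2%) after 24 hours at 37°C and 5% CO2 in 1536-well plates containing 7.5 μl DMEM/F12 or RPMI with 10% FBS. Viability came from CellTiter-Glo 2.0 luminescence, scaled between blank-well and DMSO-well means, and dose responses were fitted to a two-parameter logistic curve with a non-linear mixed effects model. The single-agent IC50 was obtained from this fit.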

AZD5363 = compound: C1CN(CCC1(C(=O)N[C@@H](CCO)C2=CC=C(C=C2)Cl)N)C3=NC=NC4=C3C=CN4 [AZD5363]; details: max 10 µM
Summary of the method: as §1

AZD1775 = compound: C=CCn1c(=O)c2cnc(Nc3ccc(N4CCN(C)CC4)cc3)nc2n1-c1cccc(C(C)(C)O)n1 [AZD1775]; details: max 3 µM
Summary of the method: as §1

Trametinib = compound: CC(=O)Nc1cccc(-n2c(=O)n(C3CC3)c(=O)c3c(Nc4ccc(I)cc4F)n(C)c(=O)c(C)c32)c1 [Trametinib]; details: max 1 µM
Summary of the method: as §1

Paclitaxel = compound: CC(=O)O[C@H]1C(=O)[C@@]2(C)[C@H]([C@H](OC(=O)c3ccccc3)[C@]3(O)C[C@H](OC(=O)[C@H](O)[C@@H](NC(=O)c4ccccc4)c4ccccc4)C(C)=C1C3(C)C)[C@]1(OC(C)=O)CO[C@@H]1C[C@@H]2O [Paclitaxel]; details: max 3 µM
Summary of the method: as §1

Palbociclib = compound: CC(=O)c1c(C)c2cnc(Nc3ccc(N4CCNCC4)cn3)nc2n(C2CCCC2)c1=O [Palbociclib]; details: max 10 µM
Summary of the method: as §1

AZD1390 = compound: CC(C)n1c(=O)n(C)c2cnc3cc(F)c(-c4ccc(OCCCN5CCCCC5)nc4)cc3c21 [AZD1390]; details: max 0.3 µM
Summary of the method: as §1

Venetoclax = compound: CC1(C)CCC(CN2CCN(c3ccc(C(=O)NS(=O)(=O)c4ccc(NCC5CCOCC5)c([N+](=O)[O-])c4)c(Oc4cnc5[nH]ccc5c4)c3)CC2)=C(c2ccc(Cl)cc2)C1 [Venetoclax]; details: max 1 µM
Summary of the method: as §1

Dasatinib = compound: CC1=C(C(=CC=C1)Cl)NC(=O)C2=CN=C(S2)NC3=CC(=NC(=N3)C)N4CCN(CC4)CCO [Dasatinib]; details: max 2 µM
Summary of the method: as §1

SG3199 = compound: CC1=CN2[C@@H](C1)C=NC3=CC(=C(C=C3C2=O)OC)OCCCCCOC4=C(C=C5C(=C4)N=C[C@@H]6CC(=CN6C5=O)C)OC [SG3199]; details: max 0.001 µM
Summary of the method: as §1

AZD2811 = compound: CCN(CCO)CCCOc1ccc2c(Nc3cc(CC(=O)Nc4cccc(F)c4)[nH]n3)ncnc2c1 [AZD2811]; details: max 1 µM
Summary of the method: as §1

SN-38 = compound: CCc1c2c(nc3ccc(O)cc13)-c1cc3c(c(=O)n1C2)COC(=O)[C@]3(O)CC [SN-38]; details: max 0.3 µM
Summary of the method: as §1

AZD0156 = compound: CN(C)CCCOc1ccc(-c2ccc3ncc4c(c3c2)n(C2CCOCC2)c(=O)n4C)cn1 [AZD0156]; details: max 3 µM
Summary of the method: as §1

AZD4320 = compound: CN(CC[C@H](CSC1=CC=CC=C1)NC2=C(C=C(C=C2)S(=O)(=O)NC(=O)C3=CC=C(C=C3)N4CCC(CC4)[C@H](C5=CC=CC=C5C6=CC=C(C=C6)Cl)O)S(=O)(=O)C(F)(F)F)CCO [AZD4320]; details: max 1 µM
Summary of the method: as §1

Alisertib = compound: COc1cc(Nc2ncc3c(n2)-c2ccc(Cl)cc2C(c2c(F)cccc2OC)=NC3)ccc1C(=O)O [Alisertib]; details: max 10 µM
Summary of the method: as §1

Etoposide = compound: COc1cc([C@@H]2c3cc4c(cc3[C@@H](O[C@@H]3O[C@@H]5CO[C@@H](C)O[C@H]5[C@H](O)[C@H]3O)[C@H]3COC(=O)[C@H]23)OCO4)cc(OC)c1O [Etoposide]; details: max 10 µM
Summary of the method: as §1

Gefitinib = compound: COc1cc2ncnc(Nc3ccc(F)c(Cl)c3)c2cc1OCCCN1CCOCC1 [Gefitinib]; details: max 10 µM
Summary of the method: as §1

Prexasertib = compound: COc1cccc(OCCCN)c1-c1cc(Nc2cnc(C#N)cn2)n[nH]1 [Prexasertib]; details: max 1 µM
Summary of the method: as §1

Doxorubicin = compound: COc1cccc2c1C(=O)c1c(O)c3c(c(O)c1C2=O)C[C@@](O)(C(=O)CO)C[C@@H]3O[C@H]1C[C@H](N)[C@H](O)[C@H](C)O1 [Doxorubicin]; details: max 1 µM
Summary of the method: as §1

AZD5153 = compound: COc1nnc2ccc(N3CCC(c4ccc(OCCN5CCN(C)C(=O)[C@H]5C)cc4)CC3)nn12 [AZD5153]; details: max 1 µM
Summary of the method: as §1

Lapatinib = compound: CS(=O)(=O)CCNCc1ccc(-c2ccc3ncnc(Nc4ccc(OCc5cccc(F)c5)c(Cl)c4)c3c2)o1 [Lapatinib]; details: max 10 µM
Summary of the method: as §1

AZD8186 = compound: C[C@@H](Nc1cc(F)cc(F)c1)c1cc(C(=O)N(C)C)cc2c(=O)cc(N3CCOCC3)oc12 [AZD8186]; details: max 10 µM
Summary of the method: as §1

Crizotinib = compound: C[C@@H](Oc1cc(-c2cnn(C3CCNCC3)c2)cnc1N)c1c(Cl)ccc(F)c1Cl [Crizotinib]; details: max 10 µM
Summary of the method: as §1

Savolitinib = compound: C[C@@H](c1ccc2nccn2c1)n1nnc2ncc(-c3cnn(C)c3)nc21 [Savolitinib]; details: max 1 µM
Summary of the method: as §1

AZD6738 = compound: C[C@@H]1COCCN1C2=NC(=NC(=C2)C3(CC3)[S@](=N)(=O)C)C4=C5C=CNC5=NC=C4 [AZD6738]; details: max 10 µM
Summary of the method: as §1

AZD5991 = compound: Cc1c2c(nn1C)CSCc1cc(n(C)n1)CSc1cc(c3ccccc3c1)OCCCc1c(C(=O)O)n(C)c3c-2c(Cl)ccc13 [AZD5991]; details: max 1 µM
Summary of the method: as §1

AZD7648 = compound: Cc1cc2ncnn2cc1Nc1ncc2c(n1)n(C1CCOCC1)c(=O)n2C [AZD7648]; details: max 10 µM
Summary of the method: as §1

Taselisib = compound: Cc1nc(-c2cn3c(n2)-c2ccc(-c4cnn(C(C)(C)C(N)=O)c4)cc2OCC3)n(C(C)C)n1 [Taselisib]; details: max 10 µM
Summary of the method: as §1

Selumetinib = compound: Cn1cnc2c(F)c(Nc3ccc(Br)cc3Cl)c(C(=O)NOCCO)cc21 [Selumetinib]; details: max 10 µM
Summary of the method: as §1

SRA737 = compound: N#Cc1cnc(Nc2cc(NC[C@H]3CNCCO3)c(C(F)(F)F)cn2)cn1 [SRA737]; details: max 10 µM
Summary of the method: as §1

MK-2206 = compound: NC1(c2ccc(-c3nc4ccn5c(=O)[nH]nc5c4cc3-c3ccccc3)cc2)CCC1 [MK-2206]; details: max 10 µM
Summary of the method: as §1

Gemcitabine = compound: Nc1ccn([C@@H]2O[C@H](CO)[C@@H](O)C2(F)F)c(=O)n1 [Gemcitabine]; details: max 0.3 µM
Summary of the method: as §1

[1] = compound: O=C(Nc1ccc2[nH]nc(-c3ccncc3)c2c1)[C@@H]1CCN(CC(=O)N2CCN(c3ccc(-c4ncccn4)cc3)CC2)C1; details: max 5 µM
Summary of the method: as §1

Olaparib = compound: O=C(c1cc(Cc2n[nH]c(=O)c3ccccc23)ccc1F)N1CCN(C(=O)C2CC2)CC1 [Olaparib]; details: max 10 µM
Summary of the method: as §1

5-Fluorouracil = compound: O=c1[nH]cc(F)c(=O)[nH]1 [5-Fluorouracil]; details: max 20 µM
Summary of the method: as §1

Row | Cell Line | IC50, cell viability 72 h (Carboplatin) [nM] | IC50, cell viability 72 h (AZD5363) [nM] | IC50, cell viability 72 h (AZD1775) [nM] | IC50, cell viability 72 h (Trametinib) [nM] | IC50, cell viability 72 h (Paclitaxel) [nM] | IC50, cell viability 72 h (Palbociclib) [nM] | IC50, cell viability 72 h (AZD1390) [nM] | IC50, cell viability 72 h (Venetoclax) [nM] | IC50, cell viability 72 h (Dasatinib) [nM] | IC50, cell viability 72 h (SG3199) [nM] | IC50, cell viability 72 h (AZD2811) [nM] | IC50, cell viability 72 h (SN-38) [nM] | IC50, cell viability 72 h (AZD0156) [nM] | IC50, cell viability 72 h (AZD4320) [nM] | IC50, cell viability 72 h (Alisertib) [nM] | IC50, cell viability 72 h (Etoposide) [nM] | IC50, cell viability 72 h (Gefitinib) [nM] | IC50, cell viability 72 h (Prexasertib) [nM] | IC50, cell viability 72 h (Doxorubicin) [nM] | IC50, cell viability 72 h (AZD5153) [nM] | IC50, cell viability 72 h (Lapatinib) [nM] | IC50, cell viability 72 h (AZD8186) [nM] | IC50, cell viability 72 h (Crizotinib) [nM] | IC50, cell viability 72 h (Savolitinib) [nM] | IC50, cell viability 72 h (AZD6738) [nM] | IC50, cell viability 72 h (AZD5991) [nM] | IC50, cell viability 72 h (AZD7648) [nM] | IC50, cell viability 72 h (Taselisib) [nM] | IC50, cell viability 72 h (Selumetinib) [nM] | IC50, cell viability 72 h (SRA737) [nM] | IC50, cell viability 72 h (MK-2206) [nM] | IC50, cell viability 72 h (Gemcitabine) [nM] | IC50, cell viability 72 h [1] [nM] | IC50, cell viability 72 h (Olaparib) [nM] | IC50, cell viability 72 h (5-Fluorouracil) [nM]
1 | KNS-62 (Squamous Cell Lung Carcinoma) | > 10000 | 6590 | > 3000 | 276 | 273 | > 10000 | > 300 | > 1000 | > 2000 | > 1 | > 1000 | 53.3 | > 3000 | > 1000 | > 10000 | > 10000 | > 10000 | 342 | > 1000 | 632 | > 10000 | > 10000 | > 10000 | > 1000 | > 10000 | > 1000 | > 10000 | > 10000 | > 10000 | > 10000 | > 10000 | > 300 | 4140 | > 10000 | > 20000
2 | L-363 (Plasma Cell Myeloma) | > 10000 | > 10000 | 231 | > 1000 | 5.31 | > 10000 | > 300 | 694 | > 2000 | > 1 | > 1000 | > 300 | > 3000 | > 1000 | > 10000 | > 10000 | > 10000 | 5.32 | > 1000 | 381 | > 10000 | > 10000 | > 10000 | > 1000 | 2770 | 134 | > 10000 | 9120 | > 10000 | 1220 | 8500 | 258 | > 5000 | > 10000 | > 20000
3 | MDA-MB-175-VII (Breast Carcinoma) | > 10000 | 4360 | > 3000 | 463 | > 3000 | > 10000 | > 300 | > 1000 | > 2000 | > 1 | > 1000 | 110 | > 3000 | > 1000 | > 10000 | > 10000 | 1150 | > 1000 | > 1000 | > 1000 | 514 | > 10000 | > 10000 | > 1000 | > 10000 | > 1000 | > 10000 | 1790 | > 10000 | > 10000 | 3990 | > 300 | 794 | > 10000 | > 20000
4 | MG-63 (Osteosarcoma) | > 10000 | 6890 | 2810 | > 1000 | 8.23 | > 10000 | > 300 | > 1000 | 354 | > 1 | > 1000 | 10.8 | > 3000 | > 1000 | 2030 | > 10000 | > 10000 | 72.7 | > 1000 | 256 | > 10000 | 6320 | 7070 | > 1000 | > 10000 | > 1000 | > 10000 | 1770 | > 10000 | > 10000 | > 10000 | 47.3 | 4710 | > 10000 | > 20000
5 | MRK-nu-1 (Breast Carcinoma) | > 10000 | > 10000 | 1660 | > 1000 | 4.68 | > 10000 | > 300 | > 1000 | > 2000 | > 1 | 816 | 35.2 | > 3000 | > 1000 | 3630 | 6130 | > 10000 | 220 | 629 | > 1000 | > 10000 | > 10000 | > 10000 | > 1000 | 9310 | 46.7 | > 10000 | > 10000 | > 10000 | > 10000 | > 10000 | 95.7 | > 5000 | > 10000 | 18400
